Reference: US20100227844A1, “CANNABINOID-1 RECEPTOR MODULATORS USEFUL FOR THE TREATMENT OF ALZHEIMER'S DISEASE” (priority 2007, published 2010)

Tests used:
[1] = target: recombinant human CB1 receptor expressed in CHO cells (Homo sapiens, UniProt P21554); assay: Cannabinoid Receptor-1 (CB1) Functional Activity (EC50) Assay; format: cell-based; conditions: forskolin-stimulated intracellular cAMP
[2] = target: recombinant human CB1 receptor (Homo sapiens, UniProt P21554); assay: Cannabinoid Receptor-1 (CB1) Binding (IC50) Assay; conditions: [3H]CP-55940 0.6 nM, CHO cell membranes
[3] = tested on: rodent model of episodic memory; conditions: in combination with Donepezil; Wise et al.; cited from earlier work
[4] = tested on: rodent models; conditions: naïve as well as scopolamine or Aβ-treated rodent models; Terranova et al.; cited from earlier work
[5] = tested on: mice; conditions: Mazzola et al.; cited from earlier work

Sequence of recombinant human CB1 receptor expressed in CHO cells (P21554 whole entry): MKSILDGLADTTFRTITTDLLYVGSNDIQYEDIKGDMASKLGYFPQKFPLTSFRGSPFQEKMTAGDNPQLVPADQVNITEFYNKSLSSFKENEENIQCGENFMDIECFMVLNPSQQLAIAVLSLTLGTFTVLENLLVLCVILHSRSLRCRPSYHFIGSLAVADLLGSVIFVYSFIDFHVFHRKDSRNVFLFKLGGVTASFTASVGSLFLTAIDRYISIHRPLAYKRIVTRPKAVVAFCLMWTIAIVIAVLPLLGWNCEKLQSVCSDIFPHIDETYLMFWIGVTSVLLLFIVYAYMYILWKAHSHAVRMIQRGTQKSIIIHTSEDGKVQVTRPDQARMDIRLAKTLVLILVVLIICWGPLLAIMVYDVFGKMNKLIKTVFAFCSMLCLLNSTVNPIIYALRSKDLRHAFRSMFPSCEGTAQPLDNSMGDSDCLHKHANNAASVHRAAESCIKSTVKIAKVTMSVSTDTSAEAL
Sequence of recombinant human CB1 receptor (P21554 whole entry): as above

Row | Structure (SMILES) | EC50 [1] | IC50 [2] | effect on cognition scores [3] | effect on learning and memory performance [4] | effect on memory deficit induced by Aβ-administration [5]
1 | CC(NC(=O)C(C)(C)Oc1ccc(C(F)(F)F)cn1)C(Cc1ccc(Cl)cc1)c1cc(C#N)c[n+]([O-])c1 (stereo not drawn) [Example I-64] | 13 nM | 29.4 nM |  |  | 
2 | CC(C)(F)[C@H](c1cc(F)cc(C#N)c1)C1CN([C@@H](c2ccc(C#N)cc2)c2cccc(C#N)c2)C1 [II] | 2 nM | 3 nM |  |  | 
3 | Cc1c(C(=O)NN2CCCCC2)nn(-c2ccc(Cl)cc2Cl)c1-c1ccc(Cl)cc1 [rimonabant] |  |  | additive effects on cognition scores | improves learning and memory performance | 
4 | Cc1c(C(=O)NN2CCCCC2)nn(-c2ccc(Cl)cc2Cl)c1-c1ccc(Cl)cc1 [SR 141716] |  |  |  |  | improves the memory deficit
5 | CC(NC(=O)C(C)(C)Oc1ccc(Cl)cn1)C(Cc1ccc(Cl)cc1)c1ccsc1 (stereo not drawn) [Example I-59] | 14 nM | 7.28 nM |  |  | 
6 | CC(NC(=O)C(C)(C)Oc1ccccn1)C(Cc1ccc(Cl)cc1)c1ccccc1 (stereo not drawn) [Example I-6, N-[3-(4-Chloro-phenyl)-1-methyl-2-phenylpropyl]-2-(2-pyridyloxy)-2-methylpropanamide] | 2.1 nM | 2.3 nM |  |  | 

The next lines start with results.

Row | EC50 [1] | IC50 [2] | Structure (SMILES) | effect on cognition scores [3] | effect on learning and memory performance [4] | effect on memory deficit induced by Aβ-administration [5]
7 | 2 nM | 1.39 nM | CC(C)CC(c1cccc(C#N)c1)C(C)NC(=O)C(C)(C)Oc1ccc(C(F)(F)F)cn1 (single isomer, unassigned) [Example I-60, N-(2-(3-cyano-phenyl)-1,4-dimethylpentyl)-2-methyl-2((5-(trifluoromethyl)-pyridin-2-yl)oxy)-propanamide] |  |  | 
8 | 2 nM | 0.33 nM | CC(NC(=O)C(C)(C)Oc1ccc(C(F)(F)F)cn1)C(CC1CCCC1)c1cccc(C#N)c1 (single isomer, unassigned) [Example I-62, N-(2-(3-cyano-phenyl)-3-cyclopentyl-1-methylpropyl)-2-methyl-2((5-(trifluoromethyl)-pyridin-2-yl)oxy)-propanamide] |  |  | 
9 | 1.33 nM | 0.45 nM | CC(NC(=O)C(C)(C)Oc1ccccn1)C(Cc1ccc(Cl)cc1)c1cc(F)cc(F)c1 (single isomer, unassigned) [Example I-25, N-[3-(4-Chloro-phenyl)-2-(3,5-difluorophenyl)-1-methylpropyl]-2-methyl-2-(2-pyridyloxy)-propanamide] |  |  | 
10 | 1.5 nM | 3 nM | CC(NC(=O)C(C)(C)Oc1ccc(C(F)(F)F)cn1)C(Cc1ccc(Cl)cc1)c1cncc(C#N)c1 (single isomer, unassigned) [Example I-39, N-[3-(4-Chloro-phenyl)-2-(5-cyano-3-pyridyl)-1-methylpropyl]-2-(5-trifluoromethyl-2-pyridyloxy)-2-methylpropanamide] |  |  | 
11 | 1.25 nM | 0.66 nM | CC(NC(=O)C(C)(C)Oc1cc(C(F)(F)F)ncn1)C(Cc1ccc(Cl)cc1)c1cccc(C#N)c1 (stereo not drawn) [Example I-36, N-[3-(4-Chloro-phenyl)-2-(3-cyanophenyl)-1-methylpropyl]-2-(6-trifluoromethyl-4-pyrimidyloxy)-2-methylpropanamide] |  |  | 
